Laboratory results as given in ChEMBL document CHEMBL1123770, “Systematic synthesis and biological evaluation of alpha- and beta-D-lyxofuranosyl nucleosides of the five naturally occurring nucleic acid bases” (1987).
In brackets after ≈: the same amount, converted by molar mass.

Assays:
Vero [1] = assay: Minimum inhibitory concentration (MIC) required to reduce virus-induced cytopathogenicity by 50% against Sindbis virus in African green monkey kidney (Vero B)cells; assay type: functional; settings: Chlorocebus sabaeus
HeLa [2] = assay: Minimum cytotoxic concentration (MCC) required to cause a microscopically detectable alteration of host cell morphology, when incubated with HeLa cells; assay type: functional; settings: Homo sapiens
WI-38 [3] = assay: Minimum inhibitory concentration (MIC) required to reduce virus-induced cytopathogenicity by 50% against Rhinovirus-1A in human diploid (WI-38)cells; assay type: functional
Vero [4] = assay: (§1) Minimum inhibitory concentration (MIC) required to reduce virus-induced cytopathogenicity by 50% against Parainfluenza virus-3 in African green monkey kidney (Vero B)cells; assay type: functional, Chlorocebus sabaeus; settings: Chlorocebus sabaeus; read-out: MIC
Vero [5] = assay: Minimum cytotoxic concentration (MCC) required to cause a microscopically detectable alteration of host cell morphology, when incubated with Vero B cells; assay type: functional; settings: Chlorocebus sabaeus
WI-38 [6] = assay: Minimum cytotoxic concentration (MCC) required to cause a microscopically detectable alteration of host cell morphology, when incubated with WI-38 cells; assay type: functional; settings: Homo sapiens
Oryctolagus cuniculus [7] = species: Oryctolagus cuniculus; assay: Minimum inhibitory concentration (MIC) required to reduce virus-induced cytopathogenicity by 50% against KOS strain of Herpes simplex virus-1 in primary rabbit kidney cells; assay type: functional
WI-38 [8] = assay: Minimum inhibitory concentration (MIC) required to reduce virus-induced cytopathogenicity by 50% against Rhinovirus 9 in human diploid (WI-38)cells; assay type: functional; settings: Homo sapiens; read-out: MIC
Vero [9] = assay: Minimum inhibitory concentration (MIC) required to reduce virus-induced cytopathogenicity by 50% against Reo virus-1 in African green monkey kidney (Vero B)cells; assay type: functional, Chlorocebus sabaeus; settings: Chlorocebus sabaeus; read-out: MIC
Oryctolagus cuniculus [10] = species: Oryctolagus cuniculus; assay: Minimum inhibitory concentration (MIC) required to reduce virus-induced cytopathogenicity by 50% against G strain of Herpes simplex virus-2 in primary rabbit kidney cells; assay type: functional; settings: Oryctolagus cuniculus; read-out: MIC
[11] = Minimum cytotoxic concentration (MCC) required to cause a microscopically detectable alteration of host cell morphology, when incubated with PRK cells; assay type: functional; settings: Oryctolagus cuniculus
Vero [12] = assay: Minimum inhibitory concentration (MIC) required to reduce virus-induced cytopathogenicity by 50% against Coxsackie virus B4 in African green monkey kidney (Vero B)cells; assay type: functional, Chlorocebus sabaeus; settings: Chlorocebus sabaeus; read-out: MIC
Monkey = assay: (§2) Minimum inhibitory concentration (MIC) required to reduce virus-induced cytopathogenicity by 50% against forest virus in African green monkey kidney (Vero B)cells; assay type: functional, Chlorocebus sabaeus; settings: Cercopithecidae
HeLa [13] = assay: Minimum inhibitory concentration (MIC) required to reduce virus-induced cytopathogenicity by 50% against Coxsackie virus B4 in HeLa cells; assay type: functional; settings: Homo sapiens
Vero [14] = assay: as §2; assay type: functional; settings: Chlorocebus sabaeus
HeLa [15] = assay: Minimum inhibitory concentration (MIC) required to reduce virus-induced cytopathogenicity by 50% against Vesicular stomatitis virus in HeLa cells; assay type: functional; settings: Homo sapiens
Human respirovirus 3 = assay: as §1; assay type: functional
Oryctolagus cuniculus [16] = species: Oryctolagus cuniculus; assay: Minimum inhibitory concentration (MIC) required to reduce virus-induced cytopathogenicity by 50% against Vaccinia virus in primary rabbit kidney cells; assay type: functional; settings: Oryctolagus cuniculus; read-out: MIC
Oryctolagus cuniculus [17] = species: Oryctolagus cuniculus; assay: Minimum inhibitory concentration (MIC) required to reduce virus-induced cytopathogenicity by 50% against Vesicular stomatitis virus in primary rabbit kidney cells; assay type: functional
[18] = Inhibitory effect on KOS strain of Herper simplex virus-1 yield, in primary rabbit kidney cell culture 0.1 ug/mL concentration after 48 hours.; assay type: functional, Oryctolagus cuniculus
[19] = Inhibitory effect on 196 strain of Herper simplex virus-2 yield, in primary rabbit kidney cell culture 4 ug/mL concentration after 48 hours.; assay type: functional, Oryctolagus cuniculus
[20] = Inhibitory effect on KOS strain of Herper simplex virus-1 yield, in primary rabbit kidney cell culture 0.4 ug/mL concentration after 48 hours.; assay type: functional, Oryctolagus cuniculus
[21] = Inhibitory effect on 196 strain of Herper simplex virus-2 yield, in primary rabbit kidney cell culture 0.1 ug/mL concentration after 24 hours.; assay type: functional, Oryctolagus cuniculus
[22] = Inhibitory effect on 196 strain of Herper simplex virus-2 yield, in primary rabbit kidney cell culture 1 ug/mL concentration after 24 hours.; assay type: functional, Oryctolagus cuniculus
[23] = Inhibitory effect on 196 strain of Herper simplex virus-2 yield, in primary rabbit kidney cell culture 0.4 ug/mL concentration after 48 hours.; assay type: functional, Oryctolagus cuniculus
[24] = Inhibitory effect on 196 strain of Herper simplex virus-2 yield, in primary rabbit kidney cell culture 0.04 ug/mL concentration after 48 hours.; assay type: functional, Oryctolagus cuniculus
Mus musculus [25] = species: Mus musculus; assay: Number of mice normal, without lesion after HSV-2 infection observed from day 0 to day 3; assay type: functional
Mus musculus [26] = species: Mus musculus; assay: Number of mice normal, without lesion after HSV-2 infection observed from day 12 to day 20; assay type: functional
[27] = Inhibitory effect on KOS strain of Herper simplex virus-1 yield, in primary rabbit kidney cell culture at 1 ug/mL concentration after 24 hours; assay type: functional, Oryctolagus cuniculus
[28] = Inhibitory effect on KOS strain of Herper simplex virus-1 yield, in primary rabbit kidney cell culture at 0.4 ug/mL concentration after 24 hours; assay type: functional, Oryctolagus cuniculus
[29] = Inhibitory effect on KOS strain of Herper simplex virus-1 yield, in primary rabbit kidney cell culture at 4 ug/mL concentration after 24 hours; assay type: functional, Oryctolagus cuniculus
Mus musculus [30] = species: Mus musculus; assay: Survival rate at 20th day expressed as number of mice survived infected with HSV-2; out of 10; assay type: functional
[31] = Inhibitory effect on KOS strain of Herper simplex virus-1 yield, in primary rabbit kidney cell culture at 0.1 ug/mL concentration after 24 hours; assay type: functional, Oryctolagus cuniculus
[32] = Inhibitory effect on 196 strain of Herper simplex virus-2 yield, in primary rabbit kidney cell culture 0.1 ug/mL concentration after 48 hours.; assay type: functional, Oryctolagus cuniculus
Mus musculus [33] = species: Mus musculus; assay: Number of mice normal, without lesion after HSV-1 infection observed from day 12 to day 20; assay type: functional
Mus musculus [34] = species: Mus musculus; assay: Survival rate at 20th day expressed as number of mice survived infected with HSV-1; out of 10; assay type: functional
[35] = Inhibitory effect on 196 strain of Herper simplex virus-2 yield, in primary rabbit kidney cell culture 1 ug/mL concentration after 48 hours.; assay type: functional, Oryctolagus cuniculus
Mus musculus [36] = species: Mus musculus; assay: Number of mice normal, without lesion after HSV-1 infection observed from day 0 to day 3; assay type: functional
[37] = Inhibitory effect on 196 strain of Herper simplex virus-2 yield, in primary rabbit kidney cell culture 4 ug/mL concentration after 24 hours.; assay type: functional, Oryctolagus cuniculus
[38] = Inhibitory effect on KOS strain of Herper simplex virus-1 yield, in primary rabbit kidney cell culture at 0.04 ug/mL concentration after 24 hours; assay type: functional, Oryctolagus cuniculus
[39] = Inhibitory effect on KOS strain of Herper simplex virus-1 yield, in primary rabbit kidney cell culture 4 ug/mL concentration after 48 hours.; assay type: functional, Oryctolagus cuniculus
[40] = Inhibitory effect on 196 strain of Herper simplex virus-2 yield, in primary rabbit kidney cell culture 0.04 ug/mL concentration after 24 hours.; assay type: functional, Oryctolagus cuniculus
[41] = Inhibitory effect on KOS strain of Herper simplex virus-1 yield, in primary rabbit kidney cell culture 0.04 ug/mL concentration after 48 hours.; assay type: functional, Oryctolagus cuniculus
[42] = Inhibitory effect on 196 strain of Herper simplex virus-2 yield, in primary rabbit kidney cell culture 0.4 ug/mL concentration after 24 hours.; assay type: functional, Oryctolagus cuniculus
[43] = Inhibitory effect on KOS strain of Herper simplex virus-1 yield, in primary rabbit kidney cell culture 1 ug/mL concentration after 48 hours.; assay type: functional, Oryctolagus cuniculus
Mus musculus [44] = species: Mus musculus; assay: Number of mice dead, after HSV-1 infection observed from day 12 to day 20; assay type: functional
[45] = Inhibitory effect on 196 strain of Herper simplex virus-2 yield, in primary rabbit kidney cell culture 10 ug/mL concentration after 24 hours.; assay type: functional, Oryctolagus cuniculus
[46] = Inhibitory effect on 196 strain of Herper simplex virus-2 yield, in primary rabbit kidney cell culture 10 ug/mL concentration after 48 hours.; assay type: functional, Oryctolagus cuniculus
[47] = Inhibitory effect on KOS strain of Herper simplex virus-1 yield, in primary rabbit kidney cell culture at 10 ug/mL concentration after 24 hours; assay type: functional, Oryctolagus cuniculus
[48] = Inhibitory effect on 196 strain of Herper simplex virus-2 yield, in primary rabbit kidney cell culture 40 ug/mL concentration after 24 hours.; assay type: functional, Oryctolagus cuniculus
Mus musculus [49] = species: Mus musculus; assay: Number of mice with skin lesions plus paralysis, after HSV-1 infection observed from day 12 to day 20; assay type: functional
[50] = Inhibitory effect on KOS strain of Herper simplex virus-1 yield, in primary rabbit kidney cell culture at 40 ug/mL concentration after 24 hours; assay type: functional, Oryctolagus cuniculus
[51] = Inhibitory effect on 196 strain of Herper simplex virus-2 yield, in primary rabbit kidney cell culture 40 ug/mL concentration after 48 hours.; assay type: functional, Oryctolagus cuniculus
Mus musculus [52] = species: Mus musculus; assay: Number of mice dead, after HSV-2 infection observed from day 12 to day 20; assay type: functional
[53] = Inhibitory effect on KOS strain of Herper simplex virus-1 yield, in primary rabbit kidney cell culture 40 ug/mL concentration after 48 hours.; assay type: functional, Oryctolagus cuniculus
[54] = Inhibitory effect on KOS strain of Herper simplex virus-1 yield, in primary rabbit kidney cell culture 10 ug/mL concentration after 48 hours.; assay type: functional, Oryctolagus cuniculus

Row | SMILES | MIC (Vero [1]) [µg/mL] | MCC (HeLa [2]) [µg/mL] | MIC (WI-38 [3]) [µg/mL] | MCC (Vero [5]) [µg/mL] | MCC (WI-38 [6]) [µg/mL] | MIC (Oryctolagus cuniculus [7]) [µg/mL] | MIC (WI-38 [8]) [µg/mL] | MIC (Vero [9]) [µg/mL] | MIC (Oryctolagus cuniculus [10]) [µg/mL] | MCC [11] [µg/mL] | MIC (Vero [12]) [µg/mL] | MIC (HeLa [13]) [µg/mL] | Virus yield [19] [log pfu ml-1] | No. of mice (Mus musculus [25]) | No. of mice (Mus musculus [26]) | Virus yield [29] [log pfu ml-1] | Survival rate (Mus musculus [30]) | No. of mice (Mus musculus [33]) | Survival rate (Mus musculus [34]) | No. of mice (Mus musculus [36]) | further results
1 | Cc1cn([C@@H]2O[C@H](CO)[C@H](O)[C@@H]2O)c(=O)[nH]c1=O | > 400 | > 400 | > 400 | > 400 | > 400 | > 400 | > 150 | > 400 | > 400 | > 400 | > 400 | > 400 |  |  |  |  |  |  |  |  | MIC (Vero [4]): > 400 µg/mL; MIC (Monkey): > 400 µg/mL
2 | Nc1nccc2c1ncn2[C@@H]1C[C@H](CO)[C@@H](O)[C@H]1O [3-DEAZAARISTEROMYCIN A] | 70 (≈ 265 µM) | > 400 | > 400 | > 400 | > 400 | > 400 | > 400 | 1 (≈ 3.78 µM) | 150 (≈ 568 µM) | > 400 | 0.04 (≈ 0.151 µM) | > 400 |  |  |  |  |  |  |  |  | MIC (Vero [14]): > 200 µg/mL; MIC (HeLa [15]): 0.7 µg/mL (≈ 2.65 µM); MIC (Human respirovirus 3): 0.7 µg/mL (≈ 2.65 µM); MIC (Oryctolagus cuniculus [16]): 0.7 µg/mL (≈ 2.65 µM); MIC (Oryctolagus cuniculus [17]): 0.2 µg/mL (≈ 0.757 µM)
3 | Nc1nc2c(ncn2COCCO)c(=O)[nH]1 [ACYCLOVIR] |  |  |  |  |  |  |  |  |  |  |  |  | 3.8 | 10 | 5 | 2 | 5 | 10 | 10 | 10 | Virus yield [18]: 5.6 log pfu ml-1; Virus yield [20]: 5 log pfu ml-1; Virus yield [21]: 4.8 log pfu ml-1; Virus yield [22]: 3.1 log pfu ml-1; Virus yield [23]: 5 log pfu ml-1; Virus yield [24]: 5.7 log pfu ml-1; Virus yield [27]: 3.6 log pfu ml-1; Virus yield [28]: 4.1 log pfu ml-1; Virus yield [31]: 5.2 log pfu ml-1; Virus yield [32]: 5.6 log pfu ml-1; Virus yield [35]: 5.3 log pfu ml-1; Virus yield [37]: <2 log pfu ml-1; Virus yield [38]: 5.6 log pfu ml-1; Virus yield [39]: 3.3 log pfu ml-1; Virus yield [40]: 5.8 log pfu ml-1; Virus yield [41]: 5.9 log pfu ml-1; Virus yield [42]: 4.1 log pfu ml-1; Virus yield [43]: 5.3 log pfu ml-1
4 | Nc1ncnc2c1ncn2[C@@H]1O[C@H](CO)[C@@H](O)[C@H]1O [ADENOSINE] |  |  |  |  |  |  |  |  |  |  |  |  | 5.7 | 10 | 3 | 6.7 | 3 | 3 | 4 | 10 | No. of mice (Mus musculus [44]): 6; Virus yield [45]: 4.7 log pfu ml-1; Virus yield [46]: 5.2 log pfu ml-1; Virus yield [47]: 5.7 log pfu ml-1; Virus yield [48]: <1.6 log pfu ml-1; No. of mice (Mus musculus [49]): 1; Virus yield [50]: 3 log pfu ml-1; Virus yield [51]: 4.3 log pfu ml-1; No. of mice (Mus musculus [52]): 7; Virus yield [37]: 5 log pfu ml-1; Virus yield [53]: 5.5 log pfu ml-1; Virus yield [39]: 6.8 log pfu ml-1; Virus yield [54]: 6.8 log pfu ml-1
